Source: ChEMBL document CHEMBL4177558, “Rapid, microwave-accelerated synthesis and anti-osteoporosis activities evaluation of Morusin scaffolds and Morusignin L scaffolds” (2017)
Activity calls are given as the source filed them. The rule behind the calls is not given here.

What was measured:
[1] = tested on: MC3T3-E1; experiment: Induction of osteoblast proliferation in mouse MC3T3-E1 cells assessed a growth rate relative to untreated control at 10^-7 mol/L after 48 hrs by MTT assay; assay type: functional
[2] = tested on: Bone; experiment: Anti-osteoporotic activity in bovine bone assessed as bone resorption of osteoclast at 1 x 10^-5 mol/L after 8 days by toluidine blue staining-based method; assay type: functional, tissue-based; settings: Bos taurus; Bone element
[3] = tested on: Osteoclast; experiment: Anti-osteoporotic activity assessed as osteoclast differentiation in rabbit bone marrow-derived osteoclast at 1 x 10^-5 mol/L after 8 days by TRAP staining-based phase-contrast microscopic method; assay type: functional, cell-based; settings: Oryctolagus cuniculus
[4] = tested on: MC3T3-E1; experiment: Induction of osteoblast proliferation in mouse MC3T3-E1 cells assessed a growth rate relative to untreated control at 10^-8 mol/L after 48 hrs by MTT assay; assay type: functional
[5] = tested on: MC3T3-E1; experiment: Induction of osteoblast proliferation in mouse MC3T3-E1 cells assessed a growth rate relative to untreated control at 10^-6 mol/L after 48 hrs by MTT assay; assay type: functional
[6] = tested on: MC3T3-E1; experiment: Induction of osteoblast proliferation in mouse MC3T3-E1 cells assessed as growth rate relative to untreated control at 10^-5 mol/L after 48 hrs by MTT assay; assay type: functional; settings: MC3T3-E1, 48 h, read-out: Activity
[7] = tested on: Bone; experiment: Anti-osteoporotic activity in bovine bone assessed as bone resorption of osteoclast at 1 x 10^-8 mol/L after 8 days by toluidine blue staining-based method; assay type: functional, tissue-based; settings: Bos taurus; Bone element
[8] = tested on: Osteoclast; experiment: Inhibition of New Zealand white rabbit bone marrow-derived osteoclast differentiation assessed as reduction in TRAP positive cells at 1 x 10^-5 to 1 x 10^-8 mol/L measured on day 8 post dose by leukocyte acid phosphatase-staining based phase contrast microscopy; assay type: functional, cell-based; settings: Oryctolagus cuniculus
[9] = tested on: Osteoclast; experiment: Inhibition of New Zealand white rabbit bone marrow-derived osteoclast differentiation assessed as reduction in TRAP activity in at 1 x 10^-6 to 1 x 10^-8 mol/L measured on day 8 post dose by StrACP assay; assay type: functional, cell-based; settings: Oryctolagus cuniculus
[10] = tested on: Osteoclast; experiment: Inhibition of New Zealand white rabbit bone marrow-derived osteoclast differentiation assessed as reduction in TRAP activity in at 1 x 10^-5 mol/L measured on day 8 post dose by StrACP assay; assay type: functional, cell-based; settings: Oryctolagus cuniculus

SMILES | Activity [1] [%] | Activity [2] | Activity [3] | Activity [4] | Activity [5] [%] | growth at 10 µM [6] [%] | Activity [7] | inhibition [8] | inhibition [9] | inhibition [10]
CC1(C)C=Cc2c(cc(O)c3c(=O)c(CCC(C)(O)c4ccc(F)cc4)c(-c4ccccc4Br)oc23)O1 (centres undefined) | 6.42 | Active | Active | 4.55% | 7.88 | 17.2 | – | – | – | –
CC(C)(O)CCc1c(-c2ccccc2Br)oc2cc3c(c(O)c2c1=O)C=CC(C)(C)O3 | 4.54 | Active | Active | 8.54% | 7.7 | 13.4 | – | – | – | –
CC1(C)C=Cc2c(cc3oc(-c4ccccc4Br)c(CCC(C)(O)c4ccccc4)c(=O)c3c2O)O1 (centres undefined) | 6.08 | – | – | 10.13% | 17.66 | 12.1 | – | – | – | –
CC(=O)CCc1c(-c2ccccc2Br)oc2c3c(cc(O)c2c1=O)OC(C)(C)C=C3 | 0.46 | – | – | 2.42% | 0.83 | 12.8 | – | – | – | –
CC(=O)CCc1c(-c2ccccc2Cl)oc2cc3c(c(O)c2c1=O)C=CC(C)(C)O3 | 9.58 | – | – | 0.85% | 9 | 7.62 | – | – | – | –
CC(=O)CCc1c(-c2ccccc2Cl)oc2c3c(cc(O)c2c1=O)OC(C)(C)C=C3 | 5.13 | – | – | 0.06% | 6.01 | 18.3 | – | – | – | –
CC1(C)C=Cc2c(cc3oc(-c4ccccc4Br)c(CCC(C)(O)c4ccc(F)cc4)c(=O)c3c2O)O1 (centres undefined) | 6.25 | – | – | 1.91% | 1.49 | -4.88 | – | – | – | –
CC(C)(O)CCc1c(-c2ccccc2Cl)oc2cc3c(c(O)c2c1=O)C=CC(C)(C)O3 | 3.74 | – | – | 6.39% | 4.61 | 14.3 | – | – | – | –
CC1(C)C=Cc2c(cc(O)c3c(=O)c(CCC(C)(O)c4ccc(F)cc4)c(-c4ccccc4Cl)oc23)O1 (centres undefined) | 6.89 | – | – | 6.02% | 6.35 | 15.9 | – | – | – | –
CC(O)CCc1c(-c2ccccc2Cl)oc2cc3c(c(O)c2c1=O)C=CC(C)(C)O3 (centres undefined) | 7.45 | Active | Active | 11.08% | 5.63 | 27.1 | – | – | – | –
CC(=O)CCc1c(-c2ccccc2Br)oc2cc3c(c(O)c2c1=O)C=CC(C)(C)O3 | 0.79 | – | – | 0.38% | 0.88 | 10.6 | – | – | – | –
CC(O)CCc1c(-c2ccccc2Cl)oc2c3c(cc(O)c2c1=O)OC(C)(C)C=C3 (centres undefined) | 2.37 | – | – | 0.53% | 5.18 | 24 | – | – | – | –
CC(C)=CCc1c(-c2ccc(O)cc2O)oc2c3c(cc(O)c2c1=O)OC(C)(C)C=C3 [MORUSIN] | 3.88 | – | – | 7.13% | 9.57 | 16 | – | – | – | –
CC(O)CCc1c(-c2ccccc2Br)oc2cc3c(c(O)c2c1=O)C=CC(C)(C)O3 (centres undefined) | 2.87 | – | – | -0.52% | 2.8 | 10.5 | – | – | – | –
CC1(C)C=Cc2c(cc(O)c3c(=O)c(CCC(C)(O)c4ccccc4)c(-c4ccccc4Br)oc23)O1 (centres undefined) | 14.74 | Active | Active | 8.56% | 16.65 | 21.7 | – | – | – | –
CC1(C)C=Cc2c(cc3oc(-c4ccccc4Cl)c(CCC(C)(O)c4ccc(F)cc4)c(=O)c3c2O)O1 (centres undefined) | 6.45 | – | – | 6.83% | 11.03 | 4.88 | – | – | – | –
CC(C)(O)CCc1c(-c2ccccc2Cl)oc2c3c(cc(O)c2c1=O)OC(C)(C)C=C3 | 1.78 | – | – | 3.08% | 2.97 | 4.29 | – | – | – | –
CC(O)CCc1c(-c2ccccc2Br)oc2c3c(cc(O)c2c1=O)OC(C)(C)C=C3 (centres undefined) | 6.7 | – | – | 7.02% | 4.94 | 19.5 | – | – | – | –
CC(C)Oc1ccc2c(=O)c(-c3ccccc3)coc2c1 [IPRIFLAVONE] | – | – | – | 4.09 - 17.3% | – | – | Active | – | – | –
CC(C)(O)CCc1c(-c2ccccc2Br)oc2c3c(cc(O)c2c1=O)OC(C)(C)C=C3 | 4.22 | – | – | 3.41% | 0.33 | 2.6 | – | – | – | –
CC(C)(O)CCc1c(-c2ccc(O)cc2O)oc2cc3c(c(O)c2c1=O)C=CC(C)(C)O3 | 5.88 | Active | – | 2.26% | 6.69 | -4.81 | – | Active | inactive | Active
